Tests used:
[1] = system: Puccinia recondita f. Sp. Tritici; test: Puccinia recondita f. sp. tritici / wheat / leaf disc preventative (brown rust); format: in vivo; details: foliar, 168 h, 200 ppm in the applied formulation, wheat leaf segments cv. Kanzler, preventative, inoculated 1 day after application, assessed 7 to 9 days after application, vs untreated, read-out: disease control
How it was run: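 Preventative leaf-segment test: spray application of diluted formulated compound on wheat cv. Kanzler, spore inoculation after 1 day. Percent control relative to untreated segments rated 7 to 9 days post-application, with incubation at 19° C, 75% relative humidity, 12 h photoperiod.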

[2] = system: Glomerella Lagenarium (Colletotrichum Lagenarium); test: Glomerella lagenarium (Colletotrichum lagenarium) liquid culture / cucumber / preventative (anthracnose); format: cell-based; details: Colletotrichum orbiculare; 20 ppm in the applied formulation; liquid culture in PDB, 24° C., inhibition of growth measured photometrically 3 to 4 days after application, vs untreated; read-out: disease control
How it was run: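 Conidia from cryogenic storage were mixed into potato dextrose broth. This was added to compound diluted from DMSO into 0.025% Tween20, tested at 20 ppm. Plates were incubated in the dark at 24 °C and 96% relative humidity, and growth was read photometrically after 2–7 days as % activity versus untreated check.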

Uromyces viciae-Fabae = test: Uromyces viciae-fabae / field bean / leaf disc preventative (faba-bean rust); format: in vivo; details: foliar, 288 h, 100 ppm in the applied formulation, field bean leaf discs, inoculated two hours after application, assessed 12 days after application, vs untreated, read-out: disease control
Protocol: Leaf disks or leaf segments of various plant species are cut from plants grown in a greenhouse. The cut leaf disks or segments are placed in multiwell plates (24-well format) onto water agar. The leaf disks are sprayed with a test solution before (preventative) or after (curative) inoculation. Compounds to be tested are prepared as DMSO solutions (max. 10 mg/ml) which are diluted to the appropriate concentration with 0.025% Tween20 just before spraying. The inoculated leaf disks or segments are incubated under defined conditions (temperature, relative humidity, light, etc.) according to the respective test system. A single evaluation of disease level is carried out 3 to 14 days after inoculation, depending on the pathosystem. Percent disease control relative to the untreated check leaf disks or segments is then calculated.
Field bean leaf discs are placed on water agar in multiwell plates (96-well format) and 10 μl of the formulated test compound diluted in acetone and a spreader pipetted onto the leaf disc. Two hours after application leaf discs are inoculated by spraying a spore suspension on the lower leaf surface. The leaf discs are incubated in a climate cabinet at 22° C. with 18 hour day and 70% relative humidity. The activity of a compound is assessed as percent disease control compared to untreated when an appropriate level of disease damage appears in untreated check leaf disks (12 days after application).
The following compounds at 100 ppm in the applied formulation give at least 80% disease control in this test when compared to untreated control leaf discs under the same conditions, which show extensive disease development.

[3] = system: Puccinia recondita f. Sp. Tritici; test: Puccinia recondita f. sp. tritici / wheat / leaf disc curative (brown rust); format: in vivo; details: foliar, 144 h, 200 ppm in the applied formulation, wheat leaf segments cv. Kanzler, applied 1 day after inoculation, assessed 6 to 8 days after application, vs untreated, read-out: disease control
How it was run: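 Compound applied 1 day after spore inoculation of wheat cv. Kanzler leaf segments on agar (dark, 19 °C, 75% RH before treatment). After further incubation under 12 h light/12 h dark at 19 °C and 75% RH, disease control relative to untreated segments rated 6–8 days post-application.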

Phakopsora pachyrhizi = Phakopsora pachyrhizi / soybean / leaf disc preventative (Asian soybean rust); format: in vivo; details: foliar, 288 h, 200 ppm in the applied formulation, soybean leaf disks, inoculated one day after application, assessed 12 to 14 days after application, vs untreated, read-out: disease control
How it was run: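 Read-out is percent disease control relative to untreated check discs, assessed once untreated discs show adequate disease, 12 to 14 days after application. Compounds, tested at 200 ppm in the applied formulation, are sprayed onto soybean leaf discs one day before inoculation with a spore suspension.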

SMILES	melting point [°C]	pest or weed control at 200 ppm [1] [%]	inhibition of growth at 20 ppm [2] [%]	pest or weed control at 100 ppm (Uromyces viciae-Fabae) [%]	pest or weed control at 200 ppm [3] [%]	pest or weed control at 200 ppm (Phakopsora pachyrhizi) [%]
FC(F)(F)c1nc(-c2ccc(Cn3cc(-c4ccsc4)nn3)cc2)no1 [Compound 1.8, 3-[4-[[4-(3-thienyl)triazol-1-yl]methyl]phenyl]-5-(trifluoromethyl)-1,2,4-oxadiazole]	160.2 to 163.9	≥ 80	≥ 80	≥ 80	≥ 80	–
Cc1ccc(-c2cn(Cc3ccc(-c4noc(C(F)(F)F)n4)cc3)nn2)cc1 [Compound 1.14, 3-[4-[[4-(p-tolyl)triazol-1-yl]methyl]phenyl]-5-(trifluoromethyl)-1,2,4-oxadiazole]	200.6 to 204.2	–	–	≥ 80	–	–
CCn1cc(-c2cn(Cc3ccc(-c4noc(C(F)(F)F)n4)cc3)nn2)c(C)n1 [Compound 1.1, 3-[4-[[4-(1-ethyl-3-methyl-pyrazol-4-yl)triazol-1-yl]methyl]phenyl]-5-(trifluoromethyl)-1,2,4-oxadiazole]	116.2 to 118.2	≥ 80	≥ 80	≥ 80	≥ 80	≥ 80
Cn1cncc1-c1cn(Cc2ccc(-c3noc(C(F)(F)F)n3)cc2)nn1 [Compound 1.6, 3-[4-[[4-(3-methylimidazol-4-yl)triazol-1-yl]methyl]phenyl]-5-(trifluoromethyl)-1,2,4-oxadiazole]	108.7 to 110.3	≥ 80	≥ 80	≥ 80	≥ 80	≥ 80
FC(F)(F)c1nc(-c2ccc(Cn3cc(C4CC4)nn3)cc2)no1 [Compound 1.5, 3-[4-[(4-cyclopropyltriazol-1-yl)methyl]phenyl]-5-(trifluoromethyl)-1,2,4-oxadiazole]	115.5 to 117.2	≥ 80	≥ 80	≥ 80	≥ 80	≥ 80
FC(F)(F)c1nc(-c2ccc(Cn3cncn3)cc2)no1 [Compound 1.19, 3-[4-(1,2,4-triazol-1-ylmethyl)phenyl]-5-(trifluoromethyl)-1,2,4-oxadiazole]	72 to 77	≥ 80	≥ 80	≥ 80	≥ 80	≥ 80
FC(F)c1cc(C(F)F)n(Cc2ccc(-c3noc(C(F)(F)F)n3)cc2)n1 [Compound 1.17, 3-[4-[[3,5-bis(difluoromethyl)pyrazol-1-yl]methyl]phenyl]-5-(trifluoromethyl)-1,2,4-oxadiazole]	53 to 58	–	≥ 80	≥ 80	–	≥ 80
COc1ccc(-c2cn(Cc3ccc(-c4noc(C(F)(F)F)n4)cc3)nn2)cc1 [Compound 1.12, 3-[4-[[4-(4-methoxyphenyl)triazol-1-yl]methyl]phenyl]-5-(trifluoromethyl)-1,2,4-oxadiazole]	187.7 to 196.2	≥ 80	–	≥ 80	–	–
Cc1cc(C(F)(F)F)nn1Cc1ccc(-c2noc(C(F)(F)F)n2)cc1 [Compound 1.20, 3-[4-[[5-methyl-3-(trifluoromethyl)pyrazol-1-yl]methyl]phenyl]-5-(trifluoromethyl)-1,2,4-oxadiazole]	–	–	≥ 80	≥ 80	–	≥ 80
CC1(C)CN=C(Cc2ccc(-c3noc(C(F)(F)F)n3)cc2)O1 [Compound 1.10, 3-[4-[(5,5-dimethyl-4H-oxazol-2-yl)methyl]phenyl]-5-(trifluoromethyl)-1,2,4-oxadiazole]	–	≥ 80	≥ 80	≥ 80	≥ 80	≥ 80
Fc1cc(-c2noc(C(F)(F)F)n2)ccc1Cn1cncn1 [Compound 1.101, 3-[3-fluoro-4-(1,2,4-triazol-1-ylmethyl)phenyl]-5-(trifluoromethyl)-1,2,4-oxadiazole]	52 to 63	≥ 80	≥ 80	–	≥ 80	≥ 80
CN(C)CCOC(=O)c1cnn(Cc2ccc(-c3noc(C(F)(F)F)n3)cc2)c1 [Compound 1.265, 2-(dimethylamino)ethyl 1-[[4-[5-(trifluoromethyl)-1,2,4-oxadiazol-3-yl]phenyl]methyl]pyrazole-4-carboxylate]	60 to 70	≥ 80	≥ 80	–	≥ 80	≥ 80
FC(F)(F)c1nc(-c2ccc(Cn3cncn3)c(Cl)c2)no1 [Compound 1.99, 3-[3-chloro-4-(1,2,4-triazol-1-ylmethyl)phenyl]-5-(trifluoromethyl)-1,2,4-oxadiazole]	63 to 71	≥ 80	≥ 80	–	≥ 80	≥ 80
CCOCc1cn(Cc2ccc(-c3noc(C(F)(F)F)n3)cc2)nn1 [Compound 1.11, 3-[4-[[4-(ethoxymethyl)triazol-1-yl]methyl]phenyl]-5-(trifluoromethyl)-1,2,4-oxadiazole]	115.7 to 117.6	≥ 80	–	≥ 80	≥ 80	≥ 80
CC(=O)OCc1cn(Cc2ccc(-c3noc(C(F)(F)F)n3)cc2)nn1 [Compound 1.7, [1-[[4-[5-(trifluoromethyl)-1,2,4-oxadiazol-3-yl]phenyl]methyl]triazol-4-yl]methyl acetate]	157.4 to 160.4	≥ 80	≥ 80	≥ 80	–	≥ 80
FC(F)(F)c1nc(-c2ccc(Cn3cc(-c4ccccc4)nn3)cc2)no1 [Compound 1.4, 3-[4-[(4-phenyltriazol-1-yl)methyl]phenyl]-5-(trifluoromethyl)-1,2,4-oxadiazole]	161.5 to 164.4	≥ 80	≥ 80	≥ 80	–	≥ 80
Fc1ccc(-c2cn(Cc3ccc(-c4noc(C(F)(F)F)n4)cc3)nn2)cc1 [Compound 1.13, 3-[4-[[4-(4-fluorophenyl)triazol-1-yl]methyl]phenyl]-5-(trifluoromethyl)-1,2,4-oxadiazole]	185.3 to 189	–	–	≥ 80	–	–
CONC(=O)c1cn(Cc2ccc(-c3noc(C(F)(F)F)n3)cc2)nn1 [Compound 1.277, N-methoxy-1-[[4-[5-(trifluoromethyl)-1,2,4-oxadiazol-3-yl]phenyl]methyl]triazole-4-carboxamide]	198 to 200	≥ 80	≥ 80	–	≥ 80	≥ 80
FC(F)(F)c1nc(-c2ccc(Cn3nncc3-c3ccccc3)cc2)no1 [Compound 1.3, 3-[4-[(5-phenyltriazol-1-yl)methyl]phenyl]-5-(trifluoromethyl)-1,2,4-oxadiazole]	–	≥ 80	≥ 80	≥ 80	≥ 80	≥ 80

From patent US10798941B2, “Microbiocidal oxadiazole derivatives” (SYNGENTA PARTICIPATIONS AG, priority 2016, dated 2020)
